Data as given in US20250059172A1, “INDAZOLE COMPOUND AND PHARMACEUTICAL” (NIPPON SHINYAKU CO., LTD., priority 2021, published 2025).
Counter-ions that a name gives are not always drawn.

Legend:
[1] = target: human mPGES-1 (Homo sapiens (Human), UniProt O14684); assay: mPGES-1 inhibitory activity test; type: biochemical; conditions: for IC50: microsomes of CHO-K1 cells expressing human mPGES-1, PGH2 1 μM, PGE2 by HTRF, read-out: mPGES-1 inhibition (IC50 nM); for inhibition at 0.01 µM: 10 nM test compound
Summary of the method: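 PGE2 formation was quantified by HTRF and reported as percent inhibition at 10 and 100 nM compound or as IC50. The 60-second reaction at 4° C used 1 μM PGH2, after a 20-minute 4° C preincubation of compound (1% DMSO final) with glutathione-supplemented (2.5 mM, pH 7.4) microsomes. The microsomes were from transiently transfected CHO-K1 cells expressing human mPGES-1.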

[2] = system: human A549 cells; assay: Inhibition test of PGE2 production using human A549 cells; type: cell-based; conditions: IL-1β stimulated A549 cells, 24 h, PGE2 by HTRF, read-out: A549 cell inhibition of PGE2 production IC50
Summary of the method: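 PGE2 (HTRF) and PGF2a (EIA) were quantified in medium after 24 h, 37°C IL-1β stimulation (5 ng/well) of human A549 cells that had received test compound 60 min beforehand (0.1% DMSO, 3% FBS RPMI). IC50 relative to the window between IL-1β-stimulated and unstimulated controls.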

Sequence of human mPGES-1 (O14684 whole entry): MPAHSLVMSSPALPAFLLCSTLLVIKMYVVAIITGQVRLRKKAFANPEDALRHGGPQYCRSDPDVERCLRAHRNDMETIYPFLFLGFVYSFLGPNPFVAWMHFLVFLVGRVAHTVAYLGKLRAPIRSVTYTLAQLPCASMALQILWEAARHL

Row | SMILES | IC50 [1] [nM] | IC50 [2] [nM] | inhibition at 0.01 µM [1] [%] | inhibition at 0.1 µM ([1]; 100 nM test compound) [%]
1 | COc1cc(-n2ncc3c(NC(=O)c4cc(CNC(=O)C(C)(C)C)ccc4Cl)cccc32)ccn1 [Example 73, 2-Chloro-5-{[(2,2-dimethylpropanoyl)amino]methyl}-N-[1-(2-methoxypyridin-4-yl)-1H-indazol-4-yl]benzamide hydrochloride] | 1.2 | 3.3 | – | –
2 | O=C(Nc1cccc2c1cnn2-c1ccc(F)cc1)c1cc(CNC(=O)C2(C(F)(F)F)CC2)ccc1Cl [Example 153, 2-Chloro-N-[1-(4-fluorophenyl)-1H-indazol-4-yl]-5-[({[1-(trifluoromethyl)cyclopropyl]carbonyl}amino)methyl]benzamide] | – | 1 | 100 | –
3 | Cc1cc(-n2ncc3c(NC(=O)c4cc(CNC(=O)C(C)(C)C)ccc4C(F)(F)F)cccc32)cc(C)n1 [Example 283, 5-{[(2,2-Dimethylpropanoyl)amino]methyl}-N-[1-(2,6-dimethylpyridin-4-yl)-1H-indazol-4-yl]-2-(trifluoromethyl)benzamide] | – | 1.9 | 72 | 96
4 | CC(=O)NCc1ccc(Cl)c(C(=O)Nc2cccc3c2cnn3-c2ccc(C(F)(F)F)cc2)c1 [Example 18, 5-[(Acetylamino)methyl]-2-chloro-N-{1-[4-(trifluoromethyl)phenyl]-1H-indazol-4-yl}benzamide] | 84.7 | 52.4 | – | –
5 | Cc1cc(-n2ncc3c(NC(=O)c4cc(CNC(=O)C(C)(C)C)ccc4Cl)cccc32)cc(C)n1 [Example 76, 2-Chloro-5-{[(2,2-dimethylpropanoyl)amino]methyl}-N-[1-(2,6-dimethylpyridin-4-yl)-1H-indazol-4-yl]benzamide hydrochloride] | 2.4 | 5.2 | – | –
6 | O=C(Nc1cccc2c1cnn2-c1cscn1)c1cc(CNC(=O)C2CCCC2)ccc1Cl [Example 188, 2-Chloro-5-{[(cyclopentylcarbonyl)amino]methyl}-N-[1-(1,3-thiazol-4-yl)-1H-indazol-4-yl]benzamide] | – | 102 | 68 | –
7 | O=C(Nc1cccc2c1cnn2-c1nccs1)c1cc(CNC(=O)C2(C(F)(F)F)CC2)ccc1Cl [Example 228, 2-Chloro-N-[1-(1,3-thiazol-2-yl)-1H-indazol-4-yl]-5-[({[1-(trifluoromethyl)cyclopropyl]carbonyl}amino)methyl]benzamide] | – | 12.9 | 77 | –
8 | CC(C)(C)C(=O)NCc1ccc(Cl)c(C(=O)Nc2cccc3c2cnn3-c2nccs2)c1 [Example 80, 2-Chloro-5-{[(2,2-dimethylpropanoyl)amino]methyl}-N-[1-(1,3-thiazol-2-yl)-1H-indazol-4-yl]benzamide] | 1.1 | 5.2 | – | –
9 | Cc1cncc(-n2ncc3c(NC(=O)c4cc(CNC(=O)C(C)(C)C)ccc4Cl)cccc32)c1 [Example 60, 2-Chloro-5-{[(2,2-dimethylpropanoyl)amino]methyl}-N-[1-(5-methylpyridin-3-yl)-1H-indazol-4-yl]benzamide hydrochloride] | 6.7 | 10.4 | – | –
10 | O=C(Nc1cccc2c1cnn2-c1ccc(C(F)(F)F)cc1)c1cc(CNC(=O)[C@H]2CC[C@@H](O)CC2)ccc1Cl [Example 40, 2-Chloro-5-({[cis-(4-hydroxycyclohexyl)carbonyl]amino}methyl)-N-{1-[4-(trifluoromethyl)phenyl]-1H-indazol-4-yl}benzamide] | 19.1 | 60.2 | – | –
11 | CC(C)(C)C(=O)NCc1ccc(Cl)c(C(=O)Nc2cccc3c2cnn3-c2cscn2)c1 [Example 83, 2-Chloro-5-{[(2,2-dimethylpropanoyl)amino]methyl}-N-[1-(1,3-thiazol-4-yl)-1H-indazol-4-yl]benzamide] | 1.5 | 5.3 | – | –
12 | Cc1ncccc1-n1ncc2c(NC(=O)c3cc(CNC(=O)C(C)(C)C)ccc3Cl)cccc21 [Example 56, 2-Chloro-5-{[(2,2-dimethylpropanoyl)amino]methyl}-N-[1-(2-methylpyridin-3-yl)-1H-indazol-4-yl]benzamide hydrochloride] | 23.6 | 183 | – | –
